Laboratory results published in patent US5652222A, “Selective inhibition of leukemic cell proliferation by bcr-abl antisense oligonucleotides” (Temple University-of The Commonwealth System of Higher …, priority 1993, dated 1997).

Experiments:
Type in all cases: cell-based, human
[1] = tested on: normal hematopoietic progenitor cells (normal bone marrow MNC); assay: CFU-GM colony formation of normal hematopoietic progenitor cells; conditions: Table 3; 40 μg/ml at 0 h, 20 μg/ml 18 h later; 12 days; mean ± SD; control 263 ± 10
From the text: Normal bone marrow mononuclear cells (MNC) were obtained by aspiration from consenting volunteers and enriched for hematopoietic progenitors as previously reported by numerous investigators (Zamecnick et al., Proc. Natl. Acad. Sci. U.S.A. 83, 4143-4147 (1986); Caracciolo et al., J. Clin. Invest. 85, 55-61 (1990)). In brief, marrow cells were subjected to Ficoll-Hypaque density gradient sedimentation and then depleted of adherent monocyte-macrophage and T-lymphocytes by adherence to plastic Petri dishes and rosetting with neuraminidase-treated sheep red blood cells, respectively. Philadelphia chromosome-positive blast cells were isolated by Ficoll-Hypaque density gradient sedimentation from a CML patient in blast crisis (L-6 type junction). […] The residual non-blast cells had the morphological appearance of small lymphocytes. 25,000 MNC and 25,000 CML blast cells were combined and incubated with bcr-abl breakpoint-Specific antisense oligomer (SEQ ID NO:3) (40 μg/ml at h 0; 20 μg/ml 18 hours later) or with a 4 nucleotide mismatch bcr-abl antisense oligomer (SEQ ID NO:2) (40 μg/ml at 0 h; 20 μg/ml 18 hours later) or left untreated. […] At the end of the incubation period colonies were counted. […]

[2] = tested on: CML blast crisis cells (L-6 type junction); assay: CFU-L colony formation of CML blast crisis cells (Example 3)
From the text: Normal bone marrow mononuclear cells (MNC) were obtained by aspiration from consenting volunteers and enriched for hematopoietic progenitors as previously reported by numerous investigators (Zamecnick et al., Proc. Natl. Acad. Sci. U.S.A. 83, 4143-4147 (1986); Caracciolo et al., J. Clin. Invest. 85, 55-61 (1990)). In brief, marrow cells were subjected to Ficoll-Hypaque density gradient sedimentation and then depleted of adherent monocyte-macrophage and T-lymphocytes by adherence to plastic Petri dishes and rosetting with neuraminidase-treated sheep red blood cells, respectively. Philadelphia chromosome-positive blast cells were isolated by Ficoll-Hypaque density gradient sedimentation from a CML patient in blast crisis (L-6 type junction). […] The residual non-blast cells had the morphological appearance of small lymphocytes. 25,000 MNC and 25,000 CML blast cells were combined and incubated with bcr-abl breakpoint-Specific antisense oligomer (SEQ ID NO:3) (40 μg/ml at h 0; 20 μg/ml 18 hours later) or with a 4 nucleotide mismatch bcr-abl antisense oligomer (SEQ ID NO:2) (40 μg/ml at 0 h; 20 μg/ml 18 hours later) or left untreated. Four hours after the second addition of oligonucleotides to the cultures, cells were seeded into duplicate methylcellulose dishes containing IL-3 (20 U/ml) and GM-CSF (5 ng/ml) and allowed to grow for an additional 12 days. At the end of the incubation period colonies were counted.
The data is shown in Table 3, below, wherein values represent mean ± standard deviation of duplicate control cultures (no oligonucleotide added) and duplicate experimental cultures from two separate experiments. Colony forming unit-granulocyte macrophage (CFU-GM)-derived colonies consisted of 50 or more cell aggregates, while CFU-GM-derived clusters were defined as aggregates of between 4 and 40 cells. These are normal hematopoietic colonies derived from progenitors with the capability to differentiate along the granulocytic and macrophage lineages. […]

[3] = tested on: cells of CML patients in blast crisis, K-28 (b3a2) type junction; assay: Colony formation of CML blast crisis patient cells expressing the b3a2 (K-28) junction; conditions: antisense to L-6 junction on K-28 cells, compared with untreated cells
From the text: To identify CML blast crisis patients carrying the second common type junction, in which bcr exon 3 is juxtaposed to c-abl exon 2, total RNA derived from cells of CML patients in blast crisis was reverse-transcribedwith synthetic primers. The 3' primer (SEQ ID NO:10) was complementary to 22 nucleotides of c-abl. exon 2. The 5' primer was the 22-mer GTCATCGTCCACTCAGCCACTG (SEQ ID NO:12) complementary to 22 nucleotides of bcr exon 3. The RNA was amplified by polymerase chain reaction according to Example 1. The amplification products were then hybridized with the synthetic 18-mer oligonucleotide GAAGGGCTTT TGAACTCT (SEQ ID NO:6), which is complementary to the b3a2 junction. After cloning of breakpoints in two patients, sequence analysis of several clones identified the b3a2 junction as precisely corresponding to the K-28 breakpoint shown in FIG. 3. (SEQ ID NO:4).
Utilizing the culture condition and oligomer treatment conditions of Example 1, cells were exposed to either no oligomer (FIG. 4A), the 18-nucleotide synthetic oligomer GAAGTGCTGT TGAACTCT (SEQ ID NO:5) partially complementary to the b3a2 junction, containing 9 nucleotides corresponding to bcr and 9 nucleotides corresponding to c-abl but with two mismatches (FIG. 4B); or the 18-nucleotide synthetic oligomer GAAGGGCTTT TGAACTCT (SEQ ID NO:6) completely complementary to the same bcr-abl junction (FIG. 4C).

BV173 cells (b2/a2) = assay: Proliferation of BV173 cells expressing b2a2 junction; conditions: in comparison to untreated control cells (FIG. 7)
Description: Amplification of the bcr-abl junction with a 5' primer corresponding to bcr exon 2, and a 3' primer corresponding to abl exon 2, followed by hybridization to an 18-mer specific for the b2/a2 or the b3/a2 junction identified the b2/a2 breakpoint in these cells (data not shown).
The sensitivity of the BV173 cells to b2/a2 antisense phosphorothioate oligodeoxynucleotides was assessed. Phosphorothioate oligodeoxynucleotides were prepared on either an Applied Biosystems Model 380B or 390Z Automated Synthesis instrument using conventional phosphoramidite monomers and manufacturer-recommended procedures, which included substitution of tetraethylthiuran (or an equivalent sulfur-donor reagent) for iodine-water-pyridine, […] reversed-phase preparative chromatography, detritylation, and obtaining the final product in the form of its sodium salt, all according to previously published methodology: Zon and Stec, in Oligonucleotides and Analogues A Practical Approach, F. Eckstein, Ed. (Oxford Univerisity Press, Oxford 1991), pp. 87-108; Zon and Geiser, Anti-Cancer Drug Design 6, 539 (1991); Vu and Hirschenbein, Tetrahedron Lett. 32, 3005-3008 (1991).
BV173 cells were cultured in the presence of phosphorothioate b2/a2 antisense 26-mer CGCTGAAGGG CTTCTTCCT ATTGAT (SEQ ID NO:29), the phosphorothioate sense sequence ATCAATAAGGAAGCCCTTCAGCG (SEQUENCE ID NO:34), or the b3/a2 (SEQ ID NO:31) or b1/a2 (SEQ ID N0:33) phosphorothioate antisense 26-mer. […] The sense oligomer SEQ ID NO:34 gave no inhibition (FIG. 7, -.largecircle.-) in comparison to untreated control cells (FIG. 7, -.quadrature.-).

| Substance | Colonies or Clusters, CFU-GM [1] | Colonies or Clusters, CFU-L (colonies formed from CML blast crisis cells) ([2]; Table 3, 40 μg/ml at 0 h, 20 μg/ml 18 h later, 12 days, mean ± SD, control 806 ± 70) | number of colonies arising from the CML blast crisis cells (CFU-L) ([2]; after twelve days in culture) | inhibition of colony formation [3] | reduction of colony formation [3] | inhibition of proliferation of BV173 cells (BV173 cells (b2/a2)) |
| --- | --- | --- | --- | --- | --- | --- |
| SEQ ID NO:3: synthetic 18-mer GAAGGGCTTC TTCCTTAT specific for the 18-nucleotide target sequence of the L-6 bcr-abl junction (antisense GAAGGGCTTCTTCCTTAT; chemistry not given here) | 253 ± 35 colonies or clusters | 180 ± 14 colonies or clusters | much lower than that arising in the presence of the mismatched bcr-abl oligomer | 2.5-5% | No significant reduction of colony formation | – |
| SEQ ID NO:34: phosphorothioate sense sequence ATCAATAAGGAAGCCCTTCAGCG (23-mer b2a2 sense) (sense ATCAATAAGGAAGCCCTTCAGCG; all phosphorothioate, sugars by position and methylation of C not given here) | – | – | – | – | – | no inhibition |
